In ChEMBL document CHEMBL1177879, “Transition metal complexes of a new hexadentate macroacyclic N2O4-donor Schiff base: inhibitory activity against bacteria and fungi” (2010) one finds zone of inhibition data, which are given here for three molecules.

What all share (details): read-out: IZ
One assay deals with Candida albicans. Briefly: Antifungal activity against Candida albicans at 50 ug after 48 hrs by agar well diffusion assay. Type of assay: functional. (In agar diffusion tests the substance spreads into inoculated agar from a disc or well.)
Another assay relates to Escherichia coli. The assay can be described thus: Antibacterial activity against Escherichia coli at 50 ug after 48 hrs by agar well diffusion assay. Type of assay: functional.
Assay [1] deals with Bacillus cirroflagellosus. The assay can be described thus: Antibacterial activity against Bacillus cirroflagellosus at 50 ug after 48 hrs by agar well diffusion assay.
A further assay deals with Aspergillus niger. The assay can be described thus: Antifungal activity against Aspergillus niger at 50 ug after 48 hrs by agar well diffusion assay. Format: functional.

With `O=NN(CC(=O)N/N=C\C=N\NC(=O)CN(N=O)c1ccccc1)c1ccccc1`, the zone of inhibition at 50 µg/disc in the assay on Candida albicans was found to be 19.3 mm; in the assay with Escherichia coli, 16.3 mm; in assay [1], 16 mm; in the assay with Aspergillus niger, 16.7 mm.

For `COC1=CC(=O)C[C@@H](C)[C@]12Oc1c(Cl)c(OC)cc(OC)c1C2=O` [GRISEOFULVIN], the zone of inhibition at 50 µg/disc is 29.3 mm in the assay with Candida albicans and 29 mm in the assay on Aspergillus niger.

As for `CCn1cc(C(=O)O)c(=O)c2cc(F)c(N3CCNCC3)cc21` [NORFLOXACIN], the zone of inhibition at 50 µg/disc (in the assay on Escherichia coli; in assay [1]) was 28.3 mm each time.
